Measured values: patent US20240390341A1, “METHODS FOR TREATING ADRENAL GLAND TUMORS” (Corcept Therapeutics Incorporated, priority 2023, published 2024)
Entries after “also recorded” stand apart in the source; their conditions may differ.

What was measured:
[1] = tested on: cortisol-secreting adrenal adenoma; assay: CT imaging of adrenal gland tumor size in GRADIENT study patients; format: in vivo, human
From the text: (§1) The following protocol describes the GRADIENT clinical trial, an on-going, randomized, double-blind, placebo-controlled Phase 3 study which focuses on patients with hypercortisolism secondary to adrenal adenoma(s) or hyperplasia (ClinicalTrials.gov Identifier: NCT04308590). This study includes patients with cortisol-secreting adrenal adenomas or hyperplasia associated with DM/IGT (diabetes […] (DM) and/or impaired glucose tolerance (IGT)) and/or uncontrolled systolic hypertension. The study enrolled patients with hypercortisolism due to cortisol secreting adrenal adenomas or hyperplasia. These patients may or may not present the classic clinical manifestations of overt Cushing syndrome (i.e., facial appearance, buffalo hump, striae, etc.). Patients were identified as suffering from cortisol-secreting adrenal gland tumors based on abnormal dexamethasone suppression test (DST) and low ACTH. Patients could receive medications that were commonly used to treat diabetes, hypertension, or dyslipidemia if required. Following screening, those patients meeting study criteria were randomly assigned to receive doses of either placebo or relacorilant for 22 weeks of treatment. Patient follow-up was within 28 days of the last dose. Total patient participation in the study was up to 32 weeks. The GRADIENT study design is illustrated in FIG. 1. Patients discussed herein were participants in the GRADIENT study. […] The starting dose at Baseline was 100 mg relacorilant or matching placebo once daily for 2 weeks, after which the dose was increased to 200 mg. As tolerated, the dose was then increased by 100 mg to 300 mg once daily after 4 weeks, and, as tolerated, the dose was then increased to 400 mg once daily after another 4 weeks. If a dose was not tolerated, dose interruption, dose reduction, and dose re-escalation were allowed. Patients were maintained at a once-daily dose of 400 mg, or at their highest tolerated dose. Dose titrations after 18 weeks were not permitted. Patients who completed the study were permitted to continue relacorilant treatment in an extension study if they have at least 80% adherence with scheduled dosing (by capsule counts), and are expected to maintain clinical benefit from the study drug. Although not expected to regress, adrenal tumors progress very slowly, and rarely progress into overt Cushing syndrome ([…] et al. 2016 Eur J Endocrinol. 175 (2):G1-[…]. doi: 10.1530/EJE-16-0467). Patients receiving placebo continued to receive their previously prescribed medications; thus, although the placebo was not expected to provide additional benefit to those patients receiving placebo, neither was any detriment expected. Relacorilant was supplied as 100 mg capsules for oral dosing. […]

[2] = tested on: plasma ACTH, cortisol levels; assay: Plasma ACTH, cortisol and DST in a GRADIENT study patient; format: in vivo, human; conditions: FIG. 2 patient
From the text: as §1, with “expected.” for “expected. Relacorilant was supplied as 100 mg capsules for oral dosing.”

pituitary macroadenomas = conditions: following administration of relacorilant; cited from earlier work
ACTH and cortisol levels = conditions: Cushing's syndrome patients; cited from earlier work
glucocorticoid receptor = glucocorticoid receptor (Homo sapiens, UniProt P04150); conditions: HepG2 cells; cited from earlier work
Sequence of glucocorticoid receptor (P04150 whole entry): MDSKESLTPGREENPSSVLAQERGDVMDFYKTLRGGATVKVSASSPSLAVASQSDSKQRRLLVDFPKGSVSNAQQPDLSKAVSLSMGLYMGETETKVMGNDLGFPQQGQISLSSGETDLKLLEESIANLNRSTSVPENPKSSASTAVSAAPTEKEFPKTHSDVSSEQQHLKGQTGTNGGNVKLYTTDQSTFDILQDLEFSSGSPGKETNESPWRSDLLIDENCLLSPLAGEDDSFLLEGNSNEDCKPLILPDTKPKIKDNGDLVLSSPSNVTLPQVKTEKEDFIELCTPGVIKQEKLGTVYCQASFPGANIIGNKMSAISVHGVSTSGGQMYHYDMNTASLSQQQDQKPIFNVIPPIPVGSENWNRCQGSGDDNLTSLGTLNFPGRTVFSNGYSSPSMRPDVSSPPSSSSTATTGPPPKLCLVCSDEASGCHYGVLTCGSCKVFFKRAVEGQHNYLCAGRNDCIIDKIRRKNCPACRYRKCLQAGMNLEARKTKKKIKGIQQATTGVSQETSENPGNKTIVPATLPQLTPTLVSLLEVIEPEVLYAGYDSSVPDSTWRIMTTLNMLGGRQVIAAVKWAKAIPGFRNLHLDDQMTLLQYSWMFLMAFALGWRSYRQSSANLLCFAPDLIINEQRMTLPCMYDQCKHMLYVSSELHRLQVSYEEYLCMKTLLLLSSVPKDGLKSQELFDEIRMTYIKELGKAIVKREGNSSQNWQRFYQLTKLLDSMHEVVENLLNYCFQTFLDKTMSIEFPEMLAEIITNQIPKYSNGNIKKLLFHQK

Row | SMILES | size of adrenal adenoma (CT) ([1]; FIG. 2 patient, benign cortisol-secreting adenoma, daily relacorilant 100 up to 400 mg/day for almost two years, initial size 4.2 cm) | degenerative changes inside the adenoma (CT) ([1]; FIG. 2 patient, after almost two years of daily relacorilant, not present in initial scan) | maximum tumor dimension (CT measurement line) ([1]; FIG. 3 patient, at least 3 months daily relacorilant 100 up to 400 mg/day, 34.09 mm / 34.08 mm before treatment) | change in adrenal gland tumor size following treatment (in words) ([1]; individual patients, daily relacorilant up to 400 mg/day) | cortisol levels (in words) ([2]; after relacorilant treatment) | dexamethasone suppression test (DST) (in words) ([2]; after relacorilant treatment) | ACTH levels (in words) ([2]; at 6 months of relacorilant administration) | plasma ACTH level ([2]; since 6 months of relacorilant, undetectable before treatment) | pituitary macroadenoma size (in words) (pituitary macroadenomas) | ACTH levels (in words) (ACTH and cortisol levels) | cortisol levels (in words) (ACTH and cortisol levels) | activity of tyrosine aminotransferase (TAT) (in words) (glucocorticoid receptor)
1 | Cn1cc(S(=O)(=O)N2CCC3=Cc4c(cnn4-c4ccc(F)cc4)C[C@]3(C(=O)c3cc(C(F)(F)F)ccn3)C2)cn1 [relacorilant, (R)-(1-(4-fluorophenyl)-6-((1-methyl-1H-pyrazol-4-yl)sulfonyl)-4,4a,5,6,7,8-hexahydro-1H-pyrazolo[3,4-g]isoquinolin-4a-yl)(4-(trifluoromethyl)pyridine-2-yl)methanone] | 3.1 cm | exhibits areas of degeneration; also recorded: developed fat droplets | 30.99 mm | reduced; also recorded: decreased | decreased | normalized | normalized | 15 to 18 pg/mL | shrink |  |  | 
2 | CC#C[C@]1(O)CC[C@H]2[C@@H]3CCC4=CC(=O)CCC4=C3[C@@H](c3ccc(N(C)C)cc3)C[C@@]21C [mifepristone] |  |  |  |  |  |  |  |  |  | increased | increased | decreases
